Literature values as cited in patent US6342486B1, “Polymer glucan ether derivatives, their manufacturing as well as their use” (Mibelle AG Cosmetics, priority 1996, dated 2002).

Details: isolated glucan from yeast cells

solubility in aqueous systems: extremely low solubility
Substance: 1,3-beta-polyglucose [glucan]
